Data taken from patent publication US7902373B2 (Pfizer Inc, priority 2006, dated 2011).

Target: human recombinant H-PGDS (Homo sapiens, UniProt O60760)
Experiment: Fluorescence intensity h-PGDS TBA enzyme assay
Format: biochemical
Conditions: Examples up to 622 (and 3a, 3b)

Sequence of human recombinant H-PGDS (O60760 whole entry): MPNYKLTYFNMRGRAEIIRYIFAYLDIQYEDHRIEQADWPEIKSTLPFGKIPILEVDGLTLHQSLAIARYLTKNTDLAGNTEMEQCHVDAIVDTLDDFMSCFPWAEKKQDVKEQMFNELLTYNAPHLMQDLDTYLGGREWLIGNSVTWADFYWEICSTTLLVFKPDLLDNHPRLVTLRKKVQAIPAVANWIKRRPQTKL

Point of comparison: O=C(NC1CCN(Cc2cccc(OC(F)F)c2)CC1)c1ccc(-c2cccc(F)c2)nc1 [Example 315, N-{1-[3-(Difluoromethoxy)benzyl]piperidin-4-yl}-6-(3-fluorophenyl)nicotinamide], IC50 0.549 nM. Against it:
- N#Cc1cccc(CN2CCC(NC(=O)c3ccc(-c4cccc(F)c4)nc3)CC2)c1 [Example 238, N-[1-(3-Cyanobenzyl)piperidin-4-yl]-6-(3-fluorophenyl)nicotinamide] — 4.1-fold lower, 0.135 nM
- Cn1cc(Cl)c(CN2CCC(NC(=O)c3ccc(-c4cccc(F)c4)nc3)CC2)n1 [Example 191, N-{1-[(4-Chloro-1-methyl-1H-pyrazol-3-yl)methyl]piperidin-4-yl}-6-(3-fluorophenyl)nicotinamide] — 3.2-fold lower, 0.171 nM
- O=C(NC1CCN(Cc2cccc3cccnc23)CC1)c1ccc(-c2cccc(F)c2)nc1 [Example 197, 6-(3-Fluorophenyl)-N-[1-(quinolin-8-ylmethyl)piperidin-4-yl]nicotinamide] — within 1.5-fold, 0.578 nM
- Cn1nccc1-c1nc(N2CCC(NC(=O)c3ccc(-c4cccc(F)c4)nc3)CC2)nc2ccccc12 [Example 56, 6-(3-Fluorophenyl)-N-{1-[4-(1-methyl-1H-pyrazol-5-yl)quinazolin-2-yl]piperidin-4-yl}nicotinamide] — 23-fold higher, 12.8 nM
- O=C(NC1CCN(c2ncccc2C(=O)N2CCOCC2)CC1)c1ccc(-c2cccc(F)c2)nc1 [Example 146, 6-(3-Fluorophenyl)-N-{1-[3-(morpholin-4-ylcarbonyl)pyridin-2-yl]piperidin-4-yl}nicotinamide] — 2.8-fold higher, 1.55 nM
- CC(=O)c1cc(C#N)c(N2CCC(NC(=O)c3ccc(-c4cccc(F)c4)nc3)CC2)nc1C [Example 76, N-[1-(5-Acetyl-3-cyano-6-methylpyridin-2-yl)piperidin-4-yl]-6-(3-fluorophenyl)nicotinamide] — 2.5-fold higher, 1.35 nM
- CC(C)(C)OC(=O)NCCCN1CCC(NC(=O)c2ccc(-c3cccc(F)c3)nc2)CC1 [Example 281, tert-Butyl {3-[4-({[6-(3-fluorophenyl)pyridin-3-yl]carbonyl}amino)piperidin-1-yl]propyl}carbamate] — 3.3-fold higher, 1.8 nM
- O=C(NC1CCN(Cc2ccccc2Cn2cccn2)CC1)c1ccc(-c2cccc(F)c2)nc1 [Example 436, 6-(3-Fluorophenyl)-N-{1-[2-(1H-pyrazol-1-ylmethyl)benzyl]piperidin-4-yl}nicotinamide] — 1.6-fold higher, 0.885 nM
- CC(C)CN(C)C(=O)c1ccc(N2CCC(NC(=O)c3ccc(-c4cccc(F)c4)nc3)CC2)nn1 [Example 159, 6-[4-({[6-(3-Fluorophenyl)pyridin-3-yl]carbonyl}amino)piperidin-1-yl]-N-isobutyl-N-methylpyridazine-3-carboxamide] — 2.9-fold higher, 1.59 nM
- CC(C)N1CCC(NC(=O)c2ccc(-c3ccccc3)nc2)CC1 [Example 4, N-(1-Isopropylpiperidin-4-yl)-6-phenylnicotinamide] — 4.7-fold higher, 2.58 nM
- C=CCC(C)(C)c1nc2c(N3CCC(NC(=O)c4ccc(-c5cccc(F)c5)nc4)CC3)ncnc2n1C [Example 93, N-{1-[8-(1,1-Dimethylbut-3-en-1-yl)-9-methyl-9H-purin-6-yl]piperidin-4-yl}-6-(3-fluorophenyl)nicotinamide] — 33-fold higher, 17.9 nM
- Cc1cc(CN2CCC(NC(=O)c3ccc(-c4cccc(F)c4)nc3)CC2)ccn1 [Example 355, 6-(3-Fluorophenyl)-N-{1-[(2-methylpyridin-4-yl)methyl]piperidin-4-yl}nicotinamide] — within 1.5-fold, 0.513 nM
- O=C(NC1CCN(CC2CC=CCC2)CC1)c1ccc(-c2cccc(F)c2)nc1 (centres unmarked) [Example 221, N-[1-(Cyclohex-3-en-1-ylmethyl)piperidin-4-yl]-6-(3-fluorophenyl)nicotinamide] — within 1.5-fold, 0.446 nM
- O=C(NC1CCN(c2cc(OCc3ccccn3)ncn2)CC1)c1ccc(-c2cccc(F)c2)nc1 [Example 53, 6-(3-Fluorophenyl)-N-{1-[6-(pyridin-2-ylmethoxy)pyrimidin-4-yl]piperidin-4-yl}nicotinamide] — 1.9-fold higher, 1.03 nM
- O=C(NC1CCN(c2cnccn2)CC1)c1ccc(-c2cccc(F)c2)nc1 [Example 60, 6-(3-Fluorophenyl)-N-(1-pyrazin-2-ylpiperidin-4-yl)nicotinamide] — within 1.5-fold, 0.593 nM
- O=C(NC1CCN(Cc2cc(F)c(F)c(F)c2)CC1)c1ccc(-c2cccc(F)c2)nc1 [Example 332, 6-(3-fluorophenyl)-N-[1-(345-trifluorobenzyl)piperidin-4-yl]nicotinamide] — 2.2-fold higher, 1.19 nM
- COc1ccccc1-c1ncc(CN2CCC(NC(=O)c3ccc(-c4cccc(F)c4)nc3)CC2)cn1 [Example 437, 6-(3-Fluorophenyl)-N-(1-{[2-(2-methoxyphenyl)pyrimidin-5-yl]methyl}piperidin-4-yl)nicotinamide] — 6.4-fold higher, 3.52 nM
- Cc1nn(-c2ccccc2)c(C)c1CN1CCC(NC(=O)c2ccc(-c3cccc(F)c3)nc2)CC1 [Example 335, N-{1-[(3,5-Dimethyl-1-phenyl-1H-pyrazol-4-yl)methyl]piperidin-4-yl}-6-(3-fluorophenyl)nicotinamide] — within 1.5-fold, 0.776 nM
- NC(=O)c1ccc(C(F)(F)F)nc1N1CCC(NC(=O)c2ccc(-c3cccc(F)c3)nc2)CC1 [Example 148, 2-[4-({[6-(3-Fluorophenyl)pyridin-3-yl]carbonyl}amino)piperidin-1-yl]-6-(trifluoromethyl)nicotinamide] — 3.2-fold higher, 1.75 nM
- Cc1nc(CN2CCC(NC(=O)c3ccc(-c4cccc(F)c4)nc3)CC2)c[nH]1 [Example 266, 6-(3-Fluorophenyl)-N-{1-[(2-methyl-1H-imidazol-4-yl)methyl]piperidin-4-yl}nicotinamide] — 3.9-fold higher, 2.15 nM
- COc1cccc(Cn2nnnc2N2CCC(NC(=O)c3ccc(-c4cccc(F)c4)nc3)CC2)c1 [Example 108, 6-(3-Fluorophenyl)-N-{1-[1-(3-methoxybenzyl)-1H-tetrazol-5-yl}piperidin-4-yl)nicotinamide] — 2.3-fold higher, 1.29 nM
- Cc1cc(NC(=O)c2cccnc2N2CCC(NC(=O)c3ccc(-c4cccc(F)c4)nc3)CC2)no1 [Example 168, 2-[4-({[6-(3-Fluorophenyl)pyridin-3-yl]carbonyl}amino)piperidin-1-yl]-N-(5-methylisoxazol-3-yl)nicotinamide] — 4.6-fold higher, 2.53 nM
- CC1(CN2CCC(NC(=O)c3ccc(-c4cccc(F)c4)nc3)CC2)CC1 [Example 505, 6-(3-Fluorophenyl)-N-{1-[(1-methylcyclopropyl)methyl]piperidin-4-yl}nicotinamide] — within 1.5-fold, 0.418 nM
- CCN(C)c1ncc2c(n1)CCC(CN1CCC(NC(=O)c3ccc(-c4cccc(F)c4)nc3)CC1)C2 (centres unmarked) [Example 398, N-[1-({2-[Ethyl(methyl)amino]-5,6,7,8-tetrahydroquinazolin-6-yl}methyl)piperidin-4-yl]-6-(3-fluorophenyl)nicotinamide] — 16-fold higher, 8.56 nM
- O=C(NC1CCN(Cc2cccc(OCCO)c2)CC1)c1ccc(-c2cccc(F)c2)nc1 [Example 256, 6-(3-Fluorophenyl)-N-{1-[3-(2-hydroxyethoxy)benzyl]piperidin-4-yl}nicotinamide] — within 1.5-fold, 0.397 nM
- O=C(NC1CCN(c2ccc(C(=O)NCCN3CCOCC3)nn2)CC1)c1ccc(-c2cccc(F)c2)nc1 [Example 84, 6-[4-({[6-(3-Fluorophenyl)pyridin-3-yl]carbonyl}amino)piperidin-1-yl]-N-(2-morpholin-4-ylethyl)pyridazine-3-carboxamide] — within 1.5-fold, 0.635 nM
- CC(C)(C)OC(=O)NC1(CN2CCC(NC(=O)c3ccc(-c4cccc(F)c4)nc3)CC2)CC1 [Example 203, tert-Butyl(1-{[4-({[6-(3-fluorophenyl)pyridin-3-yl]carbonyl}amino)piperidin-1-yl]methyl}cyclopropyl)carbamate] — 4-fold higher, 2.17 nM
- COc1cccc(CN2CCC(NC(=O)c3ccc(-c4cccc(F)c4)nc3)CC2)c1 [Example 224, 6-(3-Fluorophenyl)-N-[1-(3-methoxybenzyl)piperidin-4-yl]nicotinamide] — 1.6-fold lower, 0.342 nM
- CCOC(=O)c1cn2c(CN3CCC(NC(=O)c4ccc(-c5cccc(F)c5)nc4)CC3)cccc2n1 [Example 379, Ethyl 5-{[4-({[6-(3-fluorophenyl)pyridin-3-yl]carbonyl}amino)piperidin-1-yl]methyl}imidazo[1,2-a]pyridine-2-carboxylate] — 2.6-fold higher, 1.43 nM
- O=C(NC1CCN(Cc2c[nH]c(-c3ccccc3)n2)CC1)c1ccc(-c2cccc(F)c2)nc1 [Example 320, 6-(3-Fluorophenyl)-N-{1-[(2-phenyl-1H-imidazol-4-yl)methyl]piperidin-4-yl}nicotinamide] — 4.3-fold higher, 2.34 nM
- Cc1cc(C)c(C#N)c(N2C[C@@H](O)[C@H](NC(=O)c3ccc(-c4cccc(F)c4)nc3)C2)n1 (relative stereo) [Example 615, Trans-N-[1-(3-cyano-4,6-dimethylpyridin-2-yl)-4-hydroxypyrrolidin-3-yl]-6-(3-fluorophenyl)nicotinamide] — 9.3-fold higher, 5.1 nM
- Cc1ccccc1-c1ncc(CN2CCC(NC(=O)c3ccc(-c4cccc(F)c4)nc3)CC2)cn1 [Example 434, 6-(3-Fluorophenyl)-N-(1-{[2-(2-methylphenyl)pyrimidin-5-yl]methyl}piperidin-4-yl)nicotinamide] — 2.8-fold higher, 1.51 nM
- COc1cc(CN2CCC(NC(=O)c3ccc(-c4cccc(F)c4)nc3)CC2)ccc1OC(C)C [Example 184, 6-(3-Fluorophenyl)-N-[1-(4-isopropoxy-3-methoxybenzyl)piperidin-4-yl]nicotinamide] — 6.7-fold higher, 3.67 nM
- COc1cccc(-c2ccc(C(=O)NC3CCN(C)CC3)cn2)c1 [Example 16, 6-(3-Methoxyphenyl)-N-(1-methylpiperidin-4-yl)nicotinamide] — 270-fold higher, 146 nM
- Cn1nncc1CN1CCC(NC(=O)c2ccc(-c3cccc(F)c3)nc2)CC1 [Example 495, 6-(3-Fluorophenyl)-N-{1-[(1-methyl-1H-1,2,3-triazol-5-yl)methyl]piperidin-4-yl}nicotinamide] — within 1.5-fold, 0.409 nM
- O=C(NC1CCN(Cc2ccc3ncccc3c2)CC1)c1ccc(-c2cccc(F)c2)nc1 [Example 290, 6-(3-Fluorophenyl)-N-[1-(quinolin-6-ylmethyl)piperidin-4-yl]nicotinamide] — 1.5-fold higher, 0.843 nM
- CCc1cnc(CC)c(N2CCC(NC(=O)c3ccc(-c4cccc(F)c4)nc3)CC2)n1 [Example 169, N-[1-(3,6-Diethylpyrazin-2-yl)piperidin-4-yl]-6-(3-fluorophenyl)nicotinamide] — 42-fold higher, 23.2 nM
